Test results published in patent publication US20100047332A1, “Treatments for burns using thyroid hormone compound in a human” (priority 2005, published 2010).

Test system: plasma glycerol (lipolysis of fat)
Experiment: Plasma glycerol assay before and after mild exercise with topical TriAc cream
Format: in vivo, human
Conditions: for glycerol response relative to baseline: Triac applied; for Percentage change: glycerol after exercise vs baseline
Source text: This example uses a glycerol assay to determine the effectiveness of topically applied thyroid hormones or thyroid hormone like molecules as described in the art to increase lipolysis of fat when topically applied. More specifically, this example uses a glycerol assay to determine the effectiveness of topically applied thyroid hormones or thyroid hormone like molecules as described in the art to dissolve fat when topically applied in an amount less than a single oral dose used typically for daily therapeutic or replacement dosages.
Three adult humans (A, B, and C) with normally functioning thyroids and no history of cardiovascular disease, varying by age, sex, BMI, body surface area, and physical activity, were tested. Age varies from less than 25 (subject A) to over 40 (subjects B and C). BMI varied between 18 (A), 20 (C), and 30 (B). Physical activity was greatest in subject A, who had the lowest BMI and was also the youngest. The other two subjects typically had less than three hours of exercise per week. No food or drink other than water was given two hours prior to application of the TriAc formulation. With this short fast, the subjects are still in the fed state and plasma glycerol levels would be expected to not change during exercise, as taught in the literature for young fit subjects (Coyle et al, J Appl Physiol. 1985 August; 59(2):429-33, herein incorporated by reference). The fed state as defined herein is an individual not having an overnight fast. […] The amount of cream and thus TriAc amount was not varied according to age, sex, or weight. The cream was applied intermittently: application days were separated by at least two days.
The subjects rested for 30 minutes and then exercised in a defined manner to maintain either 65-70% of their age adjusted maximal heart rate or 110-120 strides on a Precor 544 EFX elliptical trainer for 30 minutes. Heart rate was monitored continuously with a Polar wireless monitoring device. Room temperature varied between 72 and 84 degrees. Calories expended (from Precor) per kilogram were approximately constant among each participant and between participants on a per kilogram basis during each of the exercise sessions and were usually around 3.0 to 3.5 calories per kg (see Table 4). After a 30 minute exercise session and a 5 minute programmed cool down session, another plasma glycerol assay was taken. The samples were immediately refrigerated and centrifuged after 0 to 10 hours, each exercise set treated exactly the same way, frozen at −40° C. and assayed with the Sigma-Aldrich plasma glycerol assay after deproteinization. Exercise time was fixed at a regular time of day. The next day, the experiment was repeated. The order was placebo day, then treatment day.
The magnitude of the change pre and post exercise with and without TriAc was calculated and the percentage change from baseline with and without TriAc was calculated.

[1] = group, exercise with the TriAc treatment

## O=C(O)Cc1cc(I)c(Oc2ccc(O)c(I)c2)c(I)c1 [TriAc, [4-(4-hydroxy-3-iodophenoxy)-3,5-diiodophenyl]acetic acid]
No exercise, subject A, one experiment
  glycerol response relative to baseline: 80%
No exercise, subject B
  glycerol response relative to baseline: 13%
No exercise, subject C
  glycerol response relative to baseline: −40%
With exercise, subject A
  glycerol response relative to baseline: 250%
[1]
  average increase of the concentration of glycerol: 37 µM
  average increase of the concentration of glycerol above baseline: 124%
group, versus placebo
  increase of exercise induced breakdown of fat as evidenced by plasma glycerol: over 300%
Subject A, Trial 1 Treatment
  Net change in glycerol concentration after exercise: 67.6 µM
  Percentage change: 258.9%
Subject A, Trial 1 Treatment, 120 micrograms TriAc cream topical, After exercise
  Glycerol Concentration: 93.7 µM
Subject A, Trial 1 Treatment, 120 micrograms TriAc cream topical, Before exercise (baseline)
  Glycerol Concentration: 26.2 µM
Subject A, Trial 2 Treatment
  Net change in glycerol concentration after exercise: 66.2 µM
  Percentage change: 208.7%
Subject A, Trial 2 Treatment, After exercise
  Glycerol Concentration: 97.9 µM
Subject A, Trial 2 Treatment, Before exercise (baseline)
  Glycerol Concentration: 31.7 µM
Subject A, Trial 3 Treatment
  Net change in glycerol concentration after exercise: 23.4 µM
  Percentage change: 121.4%
Subject A, Trial 3 Treatment, After exercise
  Glycerol Concentration: 42.7 µM
Subject A, Trial 3 Treatment, Before exercise (baseline)
  Glycerol Concentration: 19.3 µM
Subject B, Trial 1 Treatment
  Net change in glycerol concentration after exercise: 29.0 µM
  Percentage change: 80.8%
Subject B, Trial 1 Treatment, After exercise
  Glycerol Concentration: 64.8 µM
Subject B, Trial 1 Treatment, Before exercise (baseline)
  Glycerol Concentration: 35.8 µM
Subject B, Trial 2 Treatment
  Net change in glycerol concentration after exercise: 30.3 µM
  Percentage change: 100.0%
Subject B, Trial 2 Treatment, After exercise
  Glycerol Concentration: 60.7 µM
Subject B, Trial 2 Treatment, Before exercise (baseline)
  Glycerol Concentration: 30.3 µM
Subject B, Trial 3 Treatment
  Net change in glycerol concentration after exercise: 17.9 µM
  Percentage change: 80.3%
Subject B, Trial 3 Treatment, After exercise
  Glycerol Concentration: 40.0 µM
Subject B, Trial 3 Treatment, Before exercise (baseline)
  Glycerol Concentration: 22.1 µM
Subject C, Trial 1 Treatment
  Net change in glycerol concentration after exercise: 37.2 µM
  Percentage change: 87.1%
Subject C, Trial 1 Treatment, After exercise
  Glycerol Concentration: 80.0 µM
Subject C, Trial 1 Treatment, Before exercise (baseline)
  Glycerol Concentration: 42.7 µM
Subject C, Trial 2 Treatment
  Net change in glycerol concentration after exercise: 38.2 µM
  Percentage change: 73.3%
Subject C, Trial 2 Treatment, After exercise
  Glycerol Concentration: 90.3 µM
Subject C, Trial 2 Treatment, Before exercise (baseline)
  Glycerol Concentration: 52.1 µM
Subject C, Trial 3 Treatment
  Net change in glycerol concentration after exercise: 30.3 µM
  Percentage change: 110.0%
Subject C, Trial 3 Treatment, After exercise
  Glycerol Concentration: 57.9 µM
Subject C, Trial 3 Treatment, Before exercise (baseline)
  Glycerol Concentration: 27.6 µM
Using percentage change in the concentration of glycerol, versus placebo
  increase of effectiveness of exercise to burn fat: about 400%
